# Test results published in patent US11505533B2, “Metabolically stable N-acylaminooxadiazoles useful as antibacterial agents” (MICROBIOTIX, INC., priority 2017, dated 2022).
# Assays:
# [1] = system: MRSA-1094 (MDR); type: cell-based; settings: Staphylococcus aureus; MRSA-1094 (MDR); read-out: MIC
# [2] = system: S. aureus ATCC 25923 (MSSA. osteomyelitis isolate); type: cell-based; settings: Staphylococcus aureus; S. aureus ATCC 25923 (MSSA); read-out: MIC
# [3] = system: MRSA USA 300 (BAA-1717); type: cell-based; settings: Staphylococcus aureus; MRSA USA 300 (BAA-1717); read-out: MIC
# [4] = system: E. coli (700, TolC+) efflux pos; type: cell-based; settings: Escherichia coli; E. coli (700, TolC+) efflux pos; read-out: MIC
# [5] = system: E. coli TolC(−); assay: TolC(−) MIC (NB); type: cell-based; settings: Escherichia coli, read-out: TolC(−) MIC (μM)(NB)
# [6] = Mammalian cell cytotoxicity
# [7] = Aqueous solubility, nephelometry; settings: water, kinetic from dmso stock
# [8] = system: S. aureus (MRSA-1234547263, Cip-res); type: cell-based; settings: Staphylococcus aureus; S. aureus (MRSA-1234547263, Cip-res); read-out: MIC
# [9] = system: S. aureus (ATCC 35556, spec, kan-res); type: cell-based; settings: Staphylococcus aureus, ATCC35556
# [10] = system: S. aureus NRS-77 (spec-res); type: cell-based; settings: Staphylococcus aureus, NRS77; S. aureus NRS-77 (spec-res); read-out: MIC
# [11] = system: S. aureus WTBF-19 (MSSA. osteomyelitis isolate); type: cell-based; settings: Staphylococcus aureus; S. aureus WTBF-19 (MSSA); read-out: MIC
# [12] = system: MRSA N315 NRS-70; type: cell-based; settings: Staphylococcus aureus; MRSA N315 NRS-70; read-out: MIC
# [13] = system: S. pneumoniae 49619; type: cell-based; settings: Streptococcus pneumoniae; S. pneumoniae 49619; read-out: MIC
# [14] = system: M. pneumoniae 15531; type: cell-based; settings: Mycoplasmoides pneumoniae; M. pneumoniae 15531; read-out: MIC
# [15] = system: N. gonorrhoeae 49226; type: cell-based; settings: Neisseria gonorrhoeae; N. gonorrhoeae 49226; read-out: MIC
# [16] = system: Moraxella catarrhalis 8176; type: cell-based; settings: read-out: MIC
# [17] = system: Legionella pneumophila 33153; assay: microbe, parasite or virus in culture; type: cell-based
# [18] = system: Haemophilus influenza 35056; type: cell-based; settings: Haemophilus influenza 35056; read-out: MIC
# [19] = Caco-2 permeability; type: in vitro ADME; settings: human, direction not given
# Text: Res., 15(5): 726-733 (1998).
# [20] = Mouse serum stability; settings: 5 μM, 37° C., 4 h
# [21] = Microsomal stability + NADPH; settings: mouse liver microsomes, 0.5 hr at 37° C.
# [22] = Mouse serum binding, equilibrium dialysis
# [23] = system: E. coli TolC(−); settings: MIC in the presence of 10% fetal calf serum versus without
Compound,MIC [1] [µg/mL],MIC [2] [µg/mL],MIC [3] [µg/mL],MIC [4] [µg/mL],MIC [5] [µM],CC50 [6] [µM],solubility [7] [µM],MIC [15] [µg/mL],Papp [19] [×10⁻⁶ cm/s],Serum Stability (% remain) [20] [%],Microsomal Stability + NADPH % degraded [21] [%],fraction unbound [22],Fold Serum Shift vs. TolC(−) [23] [fold],further results
CCN(c1ccccc1)c1ccc(C(=O)Nc2nnc(-c3ccc(F)cc3)o2)cc1 [compound 4285],2.52,6.34,0.63,> 40,2.48,59.9,3.12,–,–,–,–,–,–,–
CC(C)(C)OC(=O)N1CC(Oc2ccc(C(=O)Nc3nnc(-c4ccc(F)cc4)o3)cc2)C1 [compound 4288],5.68,7.16,2.01,> 45,3.51,6.6,25,–,–,–,–,–,–,–
O=C(Nc1nnc(-c2ccc(F)cc2)o1)c1ccc(OC2CCCCC2)cc1 [compound 4292],0.75,1.23,0.3,> 39,1.1,23.7,6.25,0.1,1,82,20,< 0.01,–,MIC [8]: 0.67 µg/mL; MIC [9]: 0.95 µg/mL; MIC [10]: 1.17 µg/mL; MIC [11]: 1.19 µg/mL; MIC [12]: 1.36 µg/mL; MIC [13]: 4.77 µg/mL; MIC [14]: 19.1 µg/mL; MIC [16]: < 0.02 µg/mL; MIC [17]: 0.61 µg/mL; MIC [18]: > 39 µg/mL
O=C(Nc1nnc(-c2ccc(F)cc2)o1)c1ccc(OC2CCCC2)cc1 [compound 4293],0.72,1.15,0.29,> 36,1.39,31.8,3.12,0.09,–,88,59,0.001,–,MIC [13]: 4.59 µg/mL; MIC [14]: 18.4 µg/mL; MIC [16]: < 0.02 µg/mL; MIC [17]: 0.59 µg/mL; MIC [18]: 12.2 µg/mL
O=C(Nc1nnc(-c2ccc(F)cc2)o1)c1ccc(Oc2cccc(O)c2)cc1 [compound 4304],–,–,–,–,3.51,> 100,50,–,13.7,–,85,< 0.01,28.5,–
O=C(Nc1nnc(-c2ccc(F)cc2)o1)N1Cc2ccccc2C1 [compound 4330],2.03,≥ 32,1.01,> 32,6.25,> 100,3.13,0.16,–,–,43.5,–,–,–
O=C(Nc1nnc(-c2ccc(F)cc2)o1)N1CCc2cc(F)ccc2C1 [compound 4331],3.15,4.45,–,> 35,3.12,34,12.5,0.089,–,–,<30,–,–,–
O=C(Nc1nnc(-c2ccc(F)cc2)o1)N1CCc2ccc(F)cc2C1 [compound 4332],5,7.07,–,> 35,3.12,14.4,3.13,0.089,–,–,<30,–,–,–
O=C(Nc1nnc(-c2ccc(F)cc2)o1)N1CC=C(C(F)(F)F)CC1 [compound 4347],2.23,> 35,–,> 27,2.48,> 100,3.1,0.089,21.8,93,<30,< 0.01,–,–
CC1=CCN(C(=O)Nc2nnc(-c3ccc(F)cc3)o2)CC1 [compound 4366],–,–,–,–,6.25,46,25,–,67.3,95,45,0.051,4,–
Cc1cccc(-c2nnc(NC(=O)c3ccc(Oc4ccccc4)nc3)o2)c1 [compound 4499],–,–,–,–,1.56,> 100,25,–,–,–,19,< 0.01,20,–
O=C(Nc1nnc(-c2ccc(F)cc2)o1)N1CCC(Cl)=C(Cl)C1 [compound 4737],–,–,–,–,0.78,> 100,6.3,–,–,>95,21,< 0.01,32,–
O=C(Nc1nnc(C2CCCCC2)o1)c1ccc(Oc2cccc(O)c2)cc1 [compound 4801],–,–,–,–,3.13,–,12.5,–,13.2,>95,–,–,16,–
O=C(Nc1nnc(C2CCCCC2)o1)N1CCC(Cl)=C(Cl)C1 [compound 4808],–,–,–,–,6.25,–,–,–,24.5,>95,–,–,–,–
